Here are results for 81 molecules from the METLIN SMRT retention time set (Domingo-Almenara et al. 2019).

The data set is described as follows: gradient 5% acetonitrile 3 min, to 50% in 2 min, to 85% in 15 min, held 3 min, 100 µL/min. The conditions noted are these: column: Zorbax Extend-C18 2.1 x 50 mm; eluents: water / acetonitrile, 0.1% formic acid. The essentials: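 The mobile phases were water and acetonitrile, each with 0.1% formic acid, pumped at 100 μL/min through a Zorbax Extend-C18 column (2.1 × 50 mm, 1.8 μm). Pure standards were injected as mixtures of ~100 molecules and detected by a quadrupole time-of-flight mass spectrometer in positive and negative ionization mode. Retention time came from computationally picked adduct peaks, each inspected by hand.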
As to `Cc1ccc2oc(N3CCN(C(=O)c4ccc(-c5noc(C(C)C)n5)cc4)CC3)nc2n1`, the RP-LC retention time was determined as 685 s. With `COc1cccc(NC(=O)N2CCC3(CC2)N=C(c2cccc(Cl)c2)C(=O)N3)c1`, the RP-LC retention time amounted to 878 s. The molecule `CC1(C)CC(=O)c2cn(-c3ccccc3)c(=O)c(C(=O)NC3CCCCC3)c2C1` displayed an RP-LC retention time of 1010 s. The molecule `O=C(c1ccc(F)c(F)c1)N1CCN(c2nc(CN3CCCC3)cs2)CC1` gave an RP-LC retention time of 635 s. For `CC(=O)N1CCN(c2nc3c(s2)CC(C(=O)NCc2cc(F)cc(F)c2)CC3)CC1` (stereo unspecified), the RP-LC retention time worked out at 597 s.

With `CCn1c(=O)n(CC)c2cc(N3CCCC3)c(NC(=O)CC(=O)OC)cc21`, the RP-LC retention time is 583 s. The molecule `O=S(=O)(c1ccc(-c2nnc(C3CCCC3)o2)o1)N1CCCCC1` had an RP-LC retention time of 1010 s.

In the case of `COCCCNC(=O)C1CCN(c2cncnc2N2CCOCC2)CC1`, the RP-LC retention time was determined as 550 s. Molecule `NS(=O)(=O)c1cccnc1Nc1ccc(Cl)cc1` returned an RP-LC retention time of 863 s. `Cc1c(CCC(=O)N2CCC3(O)CCCCC3C2)c(=O)oc2cc(O)ccc12` (stereo unspecified) had an RP-LC retention time of 652 s.

In turn, `COc1ccc(-c2nn3c(-c4ccccc4F)nnc3s2)cc1` gave an RP-LC retention time of 935 s. Molecule `CS(=O)(=O)N1CCC(C(=O)Nc2ccc(Oc3ccccc3)cc2)Oc2ccccc21` (stereo unspecified) had an RP-LC retention time of 1030 s. For `COC(=O)c1ccccc1NC(=O)N1CCN(c2nc3ccccc3n2C)CC1`, the RP-LC retention time came out at 680 s. The same measure for `CCc1ccccc1N1C(=O)CN(S(C)(=O)=O)CC1(C)C(=O)NCc1ccc(F)cc1` (stereo unspecified): 830 s; for `CCc1cc(C(=O)NC2CC2)nc2cc(-c3ccsc3)nn12`: 1010 s; for `CCCn1cc(C(=O)NCc2cccnc2)c2cccnc21`: 580 s. The molecule `COc1ccc(C2CC(=O)N(c3ccc(F)cc3F)C(=O)C2)cc1OC` came in with an RP-LC retention time of 870 s. Regarding `Cc1nc(-c2ccccc2)nc2c1CC(=O)N2Cc1cccnc1`, the RP-LC retention time amounted to 616 s. Molecule `CCc1cccc(-n2nnc(C(=O)O)c2CC)c1` yielded an RP-LC retention time of 788 s.

`COc1ccc(-c2nc3ncccn3c2Nc2cc(C)cc(C)c2)cc1` came in with an RP-LC retention time of 784 s. Turning to `CC(C)(C)CC(=O)N1CCC(Oc2nccnc2N2CCc3ccccc32)C1` (stereo unspecified), the RP-LC retention time came out at 1060 s. The molecule `O=C(NCCn1c(=O)n(Cc2ccc(F)cc2)c2cccnc21)c1ccsc1` gave an RP-LC retention time of 762 s.

The molecule `O=C(O)CCC1CCN(C(=O)c2ccccc2Cl)CC1` came in with an RP-LC retention time of 677 s. The figure for `CCCNc1cc(N2CCC(CCC(=O)NCc3cccc(F)c3)CC2)ncn1` is 696 s; for `COc1ccc(-c2n[nH]c3c2C(c2cc(OC)ccc2OC)NC3=O)cc1` (stereo unspecified) it is 729 s; for `CC(=O)N1C(=O)C2(NCC(C)N2)c2ccccc21` (stereo unspecified) it is 625 s. The figure for `CCCNC(=O)C1CCN(c2ccc(SCC(=O)NCc3ccc(OC)cc3)nn2)CC1` is 621 s; for `O=C(NCc1ccco1)c1csc(N2CCN(c3ccc(F)cc3)CC2)n1` it is 991 s. `Cc1cc(C)cc(NC(=O)N2CCC(n3cnc4cc(F)ccc4c3=O)CC2)c1` registered an RP-LC retention time of 846 s.

`COc1ccc(-c2cnc(S(=O)(=O)CC(=O)NCc3ccccc3Cl)n2C)cc1`: the RP-LC retention time was 819 s. On to `O=C(c1cccs1)N1CCc2ccc(NS(=O)(=O)C3CCCCC3)cc21`, for which the RP-LC retention time stood at 892 s. The figure for `Cc1cccc(N2C(=O)NC3CC2(C)Oc2ccccc23)c1` (stereo unspecified) is 852 s. `COCC1CCN(C(=O)C2CCN(c3cnn(Cc4ccccc4)c(=O)c3)CC2)CC1` returned an RP-LC retention time of 727 s.

`O=C(NCCCn1ncccc1=O)c1coc(NC(=O)c2cnccn2)n1`: the RP-LC retention time turned out to be 554 s. The same measure for `O=C(Nc1cc(-c2cccs2)no1)C1(c2ccccc2)CC1`: 1050 s.

In turn, `CCOc1ccc(C(=O)N2CCC3(CC2)NC(=O)c2ccc(Cl)cc2N3)cc1` returned an RP-LC retention time of 768 s.

As to `CCC(=O)Nc1ccc(C2(C(=O)O)CCC2)cc1`, the RP-LC retention time turned out to be 673 s. The same measure for `Cc1ccn(-c2ccc(Nc3ccc(NC(=O)c4ccccc4C(F)(F)F)cc3)nn2)n1`: 809 s. The molecule `COCCOC(=O)C1=C(C)NC(=O)NC1c1cn(-c2ccccc2)nc1-c1cccs1` (stereo unspecified) had an RP-LC retention time of 742 s. The same measure for `COc1cc(NC(=O)c2nnn(-c3cc(OC)cc(OC)c3)c2C)cc(OC)c1`: 1050 s; for `CC(C)(C)C(=O)Nc1ccc(N2CCC(N3CCCCC3)CC2)cc1C(=O)O`: 615 s; for `CCNC(=O)N1CC=C(C(=O)Nc2ccccc2)CC1`: 658 s. `COc1ccc(C2Cn3cnc(C(=O)N4CCC(C(=O)NCc5cccs5)CC4)c3CO2)cc1` (stereo unspecified) returned an RP-LC retention time of 715 s. The molecule `O=c1ccn(-c2ccc(Cl)cc2)nc1-c1nc(-c2ccc(F)c(Br)c2)no1` had an RP-LC retention time of 1080 s. The figure for `Cc1ncsc1CN1CCC(Cc2ncc(C)n2Cc2ccccc2)C1` (stereo unspecified) is 550 s; for `Cc1cc(CN2CCC(CNC(=O)C(=O)NCc3ccccc3Cl)CC2)c(C)o1` it is 592 s; for `Cc1ccc(C)c(C(=O)NCCc2nc3cccnc3n2C(C)C)c1` it is 705 s. In turn, `O=C(NCC1CCOCC1)Nc1ccc(Cl)cc1` registered an RP-LC retention time of 705 s. For `Cc1nnc2ccc(-c3noc(-c4ccc(Br)cc4)n3)cn12`, the RP-LC retention time came to 1030 s.

`O=C([C@@H]1C[C@H](Oc2cccnc2)CN1C(=O)c1ccco1)N1CCCC1` gave an RP-LC retention time of 553 s. `COc1ccc(-c2noc(CCc3nnc4ccc(N5CCN(C6CCCCC6)CC5)nn34)n2)cc1` showed an RP-LC retention time of 646 s. As for `O=C(c1ccc(-c2csc(C3CC3)n2)cc1)N1CCCCC1`, the RP-LC retention time is 971 s. Consider `CCN1CCCn2cc(S(=O)(=O)NCc3ccc(C)o3)cc2C1=O`, for which the RP-LC retention time amounted to 676 s. Molecule `COC(=O)Nc1ccc(CC(=O)NCc2cccs2)cc1` displayed an RP-LC retention time of 662 s. Regarding `CCn1cc(-c2ccc(C)cc2)cc1C(=O)N1CCN(C)CC1`, the RP-LC retention time is 657 s. Turning to `Cc1noc(C)c1CCC(=O)N1CCN(c2c(C)nn(C3CCS(=O)(=O)C3)c2C)CC1` (stereo unspecified), the RP-LC retention time amounted to 650 s. The figure for `O=C(Oc1ccc2c(c1)O/C(=C\c1ccncc1)C2=O)c1ccc2c(c1)OCO2` is 725 s; for `O=C(NCCc1csc(C2CCCN(C(=O)CC3CCCC3)C2)n1)C1CC1` (stereo unspecified) it is 757 s.

`COc1cccc(-c2nc(-c3cccc(-c4ccn[nH]4)c3)no2)c1` yielded an RP-LC retention time of 1010 s. Molecule `O=C(CCNc1c(-c2cccc(F)c2)nc2cnccn12)NCc1ccc(F)c(Cl)c1` came in with an RP-LC retention time of 806 s. For `CCOc1ccc(OCC)c(NC(=O)C2CC(=O)N(c3cccc(NC(C)=O)c3)C2)c1` (stereo unspecified), the RP-LC retention time was found to be 772 s. Turning to `Cc1ccc(-c2nnc(Cc3nc(-c4ccccc4)no3)o2)cc1C`, the RP-LC retention time is 1090 s. In turn, `COc1ccc(-c2nc(-c3ccc4c(c3)oc(=O)n4C(C)C)no2)cc1F` displayed an RP-LC retention time of 1160 s. For the molecule `Cn1cc(C(=O)Nc2ccc(Cl)cc2)c2cccnc21`, the RP-LC retention time was 835 s. Molecule `CCc1noc(NC(C)=O)c1-c1ccc(C)c(S(=O)(=O)Nc2ccc(C)c(F)c2)c1` gave an RP-LC retention time of 856 s. `CC(C)CNC(=O)c1ccc2nc(CCc3ccc(NC(=O)C(C)C)cc3)[nH]c2c1`: the RP-LC retention time was found to be 644 s. The same measure for `CCOc1cccc(C2c3[nH]c4ccccc4c3CCN2C(=O)Cc2cccs2)c1` (stereo unspecified): 1180 s.

`Cc1ccccc1OCC(=O)N1CC2CN(S(=O)(=O)c3ccc(F)cc3)CC(C1)O2` displayed an RP-LC retention time of 903 s. The same measure for `Cc1cc(C)cc(C(=O)OC2C[C@H]3CC[C@@H](C2)N3C)c1` (stereo partly specified): 729 s; for `O=C(Nc1ccc(Cl)cc1F)C1CCCN(C(=O)c2cc(-c3ccccn3)n[nH]2)C1` (stereo unspecified): 740 s. As for `COC(=O)C1=CN(c2cc(Cl)c(OC)cc2OC)c2ccccc2S1(=O)=O`, the RP-LC retention time turned out to be 903 s. The molecule `CCn1c(=O)c(N2CCN(S(=O)(=O)c3ccc4c(c3)CCC4)CC2)nc2ccncc21` gave an RP-LC retention time of 748 s. `Cc1n[nH]c(C)c1CCC(=O)N1CCCn2ccnc2C1C1CCCC1` (stereo unspecified): the RP-LC retention time amounted to 559 s. On to `CSc1ccc(CNC(=O)C2CCCN(c3ccc(=O)n(-c4ccc(C)c(Cl)c4)n3)C2)cc1` (stereo unspecified), for which the RP-LC retention time turned out to be 1010 s. `COc1ccc(CNC(=O)C2(C)CCN(S(=O)(=O)c3ccc(Br)s3)CC2)cc1` had an RP-LC retention time of 961 s.

Consider `CCC(Sc1nc2ccccc2[nH]1)C(=O)Nc1nnc(C)s1` (stereo unspecified), for which the RP-LC retention time turned out to be 689 s.

With `O=S(=O)(c1cccn2cnnc12)N(Cc1cccc(F)c1)c1ccc(F)cc1`, the RP-LC retention time was determined as 822 s.

In turn, `c1ccc2sc(SCc3cn4cccnc4n3)nc2c1` yielded an RP-LC retention time of 622 s. `Cc1ccccc1-c1nc2cnccn2c1NCCC(=O)NCc1cc(F)cc(F)c1` showed an RP-LC retention time of 693 s. The molecule `Cc1ccc2nc(NC(=O)CSc3ccc(-n4cccn4)nn3)sc2c1` yielded an RP-LC retention time of 844 s. In the case of `CCCN(CC(=O)N(Cc1ccco1)CC1CCCO1)C(=O)c1ccccc1OC` (stereo unspecified), the RP-LC retention time stood at 870 s.
